Data on five compounds can be found in ChEMBL document CHEMBL4706690, “Identification of BR102910 as a selective fibroblast activation protein (FAP) inhibitor” (Bioorg Med Chem Lett, 2021).

The target in one assay is Dipeptidyl peptidase 4 (Homo sapiens, UniProt P27487). Put plainly: Inhibition of DPP4 (unknown origin) using AMC substrate by fluorometric assay.
Another assay has as its target T1, Prolyl endopeptidase (Homo sapiens, UniProt P48147).
T1 sequence (P48147 whole entry): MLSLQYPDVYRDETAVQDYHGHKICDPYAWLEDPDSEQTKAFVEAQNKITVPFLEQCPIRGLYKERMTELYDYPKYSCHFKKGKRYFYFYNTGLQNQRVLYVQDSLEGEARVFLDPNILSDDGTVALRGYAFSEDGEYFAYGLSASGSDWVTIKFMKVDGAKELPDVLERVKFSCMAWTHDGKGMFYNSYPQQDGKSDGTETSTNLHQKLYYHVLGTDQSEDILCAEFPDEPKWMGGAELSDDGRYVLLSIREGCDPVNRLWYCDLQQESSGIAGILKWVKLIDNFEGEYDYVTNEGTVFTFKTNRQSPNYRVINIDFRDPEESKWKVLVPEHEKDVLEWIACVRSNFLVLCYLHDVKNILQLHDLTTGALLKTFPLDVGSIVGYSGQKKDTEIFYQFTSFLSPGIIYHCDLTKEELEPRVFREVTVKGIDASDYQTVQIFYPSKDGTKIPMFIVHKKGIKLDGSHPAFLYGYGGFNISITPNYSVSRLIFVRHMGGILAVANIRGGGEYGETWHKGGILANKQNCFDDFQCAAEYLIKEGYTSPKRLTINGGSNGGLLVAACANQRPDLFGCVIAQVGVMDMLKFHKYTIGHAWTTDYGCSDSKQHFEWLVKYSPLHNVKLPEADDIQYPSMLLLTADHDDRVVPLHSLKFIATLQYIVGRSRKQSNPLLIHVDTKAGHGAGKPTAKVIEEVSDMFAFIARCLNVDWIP

The target in assay [1] is Prolyl endopeptidase FAP (Homo sapiens) (UniProt Q12884). Put plainly: Inhibition of FAP (unknown origin) at 1 uM TR-FRET assay relative to control. (In general: In TR-FRET formats the signal depends on donor and acceptor labels being close together.)
A further assay concerns the target T2, Prolyl endopeptidase FAP (Homo sapiens, UniProt Q12884).
T2 sequence (Q12884 whole entry): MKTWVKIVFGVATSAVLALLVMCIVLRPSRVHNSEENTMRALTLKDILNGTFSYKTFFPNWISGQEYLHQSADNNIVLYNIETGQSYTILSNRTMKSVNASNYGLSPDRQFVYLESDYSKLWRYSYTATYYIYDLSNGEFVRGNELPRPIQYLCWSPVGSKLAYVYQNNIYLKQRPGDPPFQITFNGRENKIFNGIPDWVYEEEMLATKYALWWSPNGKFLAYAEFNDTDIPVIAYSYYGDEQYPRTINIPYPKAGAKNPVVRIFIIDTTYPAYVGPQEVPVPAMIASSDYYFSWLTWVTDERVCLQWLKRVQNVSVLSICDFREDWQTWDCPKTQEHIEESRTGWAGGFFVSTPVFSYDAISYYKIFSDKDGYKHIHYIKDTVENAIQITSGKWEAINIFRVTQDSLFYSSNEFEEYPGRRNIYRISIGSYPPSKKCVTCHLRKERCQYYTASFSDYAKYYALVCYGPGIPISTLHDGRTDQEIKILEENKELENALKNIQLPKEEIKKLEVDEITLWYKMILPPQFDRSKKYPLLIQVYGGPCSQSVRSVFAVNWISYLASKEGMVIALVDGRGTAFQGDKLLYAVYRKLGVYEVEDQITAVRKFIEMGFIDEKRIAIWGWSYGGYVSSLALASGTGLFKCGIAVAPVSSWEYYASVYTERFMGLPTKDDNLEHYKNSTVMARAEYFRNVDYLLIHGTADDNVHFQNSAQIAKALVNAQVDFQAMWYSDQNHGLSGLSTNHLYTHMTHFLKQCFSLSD
Put plainly: Inhibition of FAP (unknown origin) using AMC substrate by fluorometric assay.

For assay [2], the system named is Mus musculus. Kind of assay: Antidiabetic activity in ob/ob mouse assessed as reduction in plasma glucose level treated single oral dose of compound and recombinant human FGF21 intraperitoneally 60 mins prior to glucose challenge by OGTT. To be noted: dose 20-50 mg/kg. Type of assay: functional, organism-based.
The species named for assay [3] is Mus musculus. The note with it: dose 20-50 mg/kg, time hrs <=9.
The species entered for assay [4] is Mus musculus. To be noted: C57BL/6J, dose 10-30 mg/kg, time hrs <=6.
Another assay has as its target Dipeptidyl peptidase 2 (Homo sapiens, UniProt Q9UHL4). Put plainly: Inhibition of DPP2 (unknown origin) using AMC substrate by fluorometric assay.

pIC50: −log10 of the molar value. Calls of active or inactive are those of the source. No cut-off for these calls is given here.

Chain of Dipeptidyl peptidase 4 (P27487 whole entry): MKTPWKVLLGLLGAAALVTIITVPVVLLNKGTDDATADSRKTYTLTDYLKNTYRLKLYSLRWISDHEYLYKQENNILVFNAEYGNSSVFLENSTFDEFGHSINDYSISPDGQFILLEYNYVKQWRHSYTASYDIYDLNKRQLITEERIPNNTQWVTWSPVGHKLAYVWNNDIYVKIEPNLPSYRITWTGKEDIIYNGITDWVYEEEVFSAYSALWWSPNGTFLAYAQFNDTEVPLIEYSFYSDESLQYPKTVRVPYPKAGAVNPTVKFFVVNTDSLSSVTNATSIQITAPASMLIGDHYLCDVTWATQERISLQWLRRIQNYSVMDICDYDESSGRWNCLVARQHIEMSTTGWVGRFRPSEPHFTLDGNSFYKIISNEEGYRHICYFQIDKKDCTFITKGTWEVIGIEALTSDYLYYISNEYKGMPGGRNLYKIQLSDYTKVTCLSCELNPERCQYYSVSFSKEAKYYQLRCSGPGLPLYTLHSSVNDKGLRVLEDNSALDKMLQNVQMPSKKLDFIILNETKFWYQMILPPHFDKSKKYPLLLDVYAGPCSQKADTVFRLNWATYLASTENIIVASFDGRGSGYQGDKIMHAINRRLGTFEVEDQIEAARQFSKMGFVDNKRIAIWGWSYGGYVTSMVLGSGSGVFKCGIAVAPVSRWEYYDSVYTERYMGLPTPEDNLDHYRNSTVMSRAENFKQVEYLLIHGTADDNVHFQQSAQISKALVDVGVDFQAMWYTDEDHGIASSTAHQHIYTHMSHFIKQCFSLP

Usually pIC50 stands for the IC50 on a negative log10 scale, so that one unit is a factor of ten. As usually defined, the inhibition is the drop in the measured response relative to a control, in per cent. In the case of `N#Cc1ccc(Cc2nc(C(=O)NCC(=O)N3CC(F)(F)C[C@H]3C#N)cs2)cc1`, the values for the pIC50 against Dipeptidyl peptidase 4 and against Prolyl endopeptidase were below 4.00 and 5.49, respectively. In assay [1], the inhibition was found to be 99.3%.

Turning to `N#C[C@@H]1CC(F)(F)CN1C(=O)CNC(=O)c1csc(-c2ccc(C(F)(F)F)cc2)n1`, the pIC50 against Prolyl endopeptidase FAP is 7.11; against Dipeptidyl peptidase 4, below 4.00; at Prolyl endopeptidase, 5.86. The compound also came in with an inhibition in assay [1] of 99%.

For `C[S+]([O-])c1ccc(Cc2nc(C(=O)NCC(=O)N3CC(F)(F)C[C@H]3C#N)cs2)cc1` (some centres undefined), the pIC50 against Prolyl endopeptidase FAP is 6.41; against Dipeptidyl peptidase 4 it was 5.39; at Prolyl endopeptidase it was 5.92. In assay [1], this compound gave an inhibition of 95%.

Turning to `N#C[C@@H]1CC(F)(F)CN1C(=O)CNC(=O)c1csc(Cc2ccc(Cl)c(Cl)c2)n1`, in the assay with Mus musculus [2], the Activity result was “Dose-dependent effect”. Further, the inhibition result in the assay listed under Mus musculus [3] is “Active”. Also, the pIC50 on Prolyl endopeptidase FAP was 8.70; at Dipeptidyl peptidase 4, below 4.00. Further, the figures for the inhibition (in assay [1]; in the assay filed under Mus musculus [4]) were 99% and “Dose-dependent effect”, respectively.

As for `C[C@@H](NC(=O)c1ccncc1)C(=O)N1CCC[C@H]1B(O)O`, the negative logarithm of the IC50 (pIC50) on Dipeptidyl peptidase 2 and against Dipeptidyl peptidase 4 was below 4.00 throughout.
